Source: ChEMBL document CHEMBL1158943, “Chemistry of Sponges, XI. 22-Deoxyvariabilin, a New Sesterterpene from the Sponge Thorecta sp” (J Nat Prod, 1991)
Activity calls are given as the source filed them.

Tests used:
Type in all cases: functional, organism-based
Bacillus subtilis = assay: Antimicrobial activity against Bacillus subtilis at 50 ug/disk by standard disk method
Staphylococcus aureus = assay: Antimicrobial activity against Staphylococcus aureus at 100 ug/disk by standard disk method
Candida albicans = assay: Antimicrobial activity against Candida albicans at 100 ug/disk by standard disk method

Measured: Activity

CC1=C/C(=C/[C@@H](C)CCC/C(C)=C/CC/C(C)=C/CCc2ccoc2)OC1=O
active: all assays above
